In patent US11845770B2, “Ascaroside derivatives and methods of use” (California Institute of Technology, priority 2019, dated 2023):

Experiments:
[1] = tested on: THP1 human macrophage cells; test: Stimulation of THP-1 cells, IL-6 at 6 or 36 hours post stimulation; format: cell-based; conditions: THP1-derived macrophages, IFNγ + LPS, 0.1 to 500 μM, FIG. 9
Procedure: Human immortalized monocytic THP-1 cells were maintained in phenol red free RPMI 1640 medium containing 10% (v/v) fetal bovine serum (FBS), 2 mM L-glutamine, penicillin (100 units/mL), streptomycin (100 μg/mL), amphotericin B (2.5 μg/mL), and 50 μM beta-mercaptoethanol (BME) at 37° C. with 5% (v/v) CO2. THP-1 cells were seeded in 1 mL of THP-1 medium (cell culture medium containing 10% (v/v) FBS, 2 mM L-glutamine, penicillin (100 units/mL), streptomycin (100 μg/mL), amphotericin B ([…]), and 50 μM BME)/well at a density of 1×10^6 cells/mL in six-well plates. Cells were differentiated by adding 10, 50, or 100 nM phorbol 12-myristate 13-acetate (PMA) to each well before incubating cells for 5.5 h at 37° C. with 5% (v/v) CO2. Without removing the media, different concentrations (either 0, 0.1, 1.0, 10, 100, 200, or 500 μM) of the compound were added to each well. Cells were stimulated, within 30 min by adding 20 ng/mL interferon gamma (IFNγ) and 100 ng/mL lipopolysaccharide (LPS) to each well. Following stimulation, the THP-1 cells were incubated for 6 or 36 hours at 37° C. with 5% (v/v) CO2. Supernatant was collected and stored at −80° C. until use.
IL-6 released from supernatants collected at 6 or 36 hours post stimulation with IFNγ and LPS were measured using the AlphaLISA Human IL-6 detection kit.

[2] = Stability in plasma (mouse); format: in vitro ADME; conditions: after 120 minutes, 37° C.
Procedure: The pH of plasma was adjusted to 7.4±0.1 if required. 1 mM intermediate solution was prepared by diluting 10 μL of the 10 mM stock solution of 1 with 90 μL DMSO; 1 mM intermediate of positive control propantheline bromide was prepared by diluting 10 μL of the stock solution with 90 μL ultra-pure water. 100 μM dosing solution was prepared by diluting 10 μL of the 1 mM intermediate solution with 90 μL of 45% MeOH/H2O. 98 μL of blank plasma was spiked with 2 μL of the 100 μM dosing solution to achieve a final concentration of 2 μM of the compound in duplicate. Samples were incubated at 37° C. in a water bath. At each time point (0, 10, 30, 60 and 120 min), 400 μL of stop solution (200 ng/mL tolbutamide plus 200 ng/mL labetalol in 50% ACN/MeOH) was added and was mixed thoroughly to precipitate protein. Sample plates were centrifuged at 4,000 rpm for 10 min. An aliquot of supernatant (100 μL) was transferred from each well and was mixed with 200 μL ultra-pure water. The samples were shaken at 800 rpm for about 10 min before LC/MS/MS analysis.
The remaining percentage of compound 1 (test article) after incubation was calculated according to the following equation.

[3] = Plasma protein binding, HT-Dialysis (rat); format: in vitro ADME; conditions: pH 7.4, dialysis 4 hours, read-out: percent unbound
Procedure: HT-Dialysis plate (Model HTD 96 b, Cat #1006) and the dialysis membrane (molecular weight cut off 12-14 KDa, Cat #1101) can be purchased from HT Dialysis LLC (Gales Ferry, CT).
The plasma was thawed under running cold tap water and centrifuged at 3220×g for 5 min to remove any clots. The pH value was checked and recorded. Only plasma within range of pH 7.0 to pH 8.0 was used. The dialysis membrane was pretreated according to the manufacturer's instructions. Briefly, the dialysis membrane strips were soaked in ultra-pure water at room temperature for approximately 1 hr. After that, each membrane strip that contained 2 membranes was separated and soaked in ethanol:water (20:80 v:v) for approximately 20 min. The membrane was rinsed and soaked for 20 min in ultra-pure water.
Aliquots of 50 μL loading plasma (matrix) containing compound 1 or warfarin in triplicate were transferred to the appropriate wells of a sample collection plate. The samples were matched with dialysis buffer to obtain a final volume of 100 μL with a volume ratio of plasma (matrix):dialysis buffer (1:1, v:v) in each well. […]
The % Unbound, % Bound, % Recovery and % Remaining were calculated using the following equations: % Unbound=100×F/T % Bound=100−% Unbound % Recovery=100×(F+T)/T0 • F=the compound 1 concentration on the receiver side of the membrane/Correction Factor. […]

remaining percentage after incubation [2]	fraction unbound at 4 h [3]	Compound	percent inhibition relative to Control of IL-6 levels secreted [1]
–	–	C[C@H](CC/C=C/C(=O)OC(C)(C)C)O[C@@H]1O[C@@H](C)[C@H](O)C[C@H]1O [Compound 1, tert-butyl (2E,6R)-6-{[(2R,3R,5R,6S)-3,5-dihydroxy-6-methyloxan-2-yl]oxy}hept-2-enoate]	inhibited IL-6 expression in statistically significant, dose-dependent manner
103.4%	0.946	C[C@H](CC/C=C/C(=O)O)O[C@@H]1O[C@@H](C)[C@H](O)C[C@H]1O [ascr #7, reference compound]	–
